Data reported in patent US20190264255A1, “Competition Test of an Enzyme Substrate with Internal Compensation for Enzyme Activity” (TECHNISCHE UNIVERSITÄT DARMSTADT, priority 2016, published 2019).

Biological target: Thrombin (Homo sapiens, UniProt P00734)
Assay: Thrombin cleavage of Z-Gly-Pro-Arg-p-phenylenediamine, photometric detection by oxidative coupling with a-naphthol
Assay type: biochemical
Details: pH 8; buffer as for fluorescence measurement + 2% Triton X100; substrate cleavage by thrombin
Description: Buffer, substrate and fibrinogen were placed in a 96-well microtiter plate. The enzyme was injected with the injector attached to the TECAN reader. The experimental conditions are set out in the following information. • Substrate conc. Z-Gly-Pro-Arg-aminomethylcoumarin 10 mM in DMSO • Substrate dil. Z-Gly-Pro-Arg-aminomethylcoumarin 1 mM in DMSO • Test buffer 50 mM Tris, 250 mM NaCl, 0.1% PEG6000, pH 8.0 • Haemocomplettan 100 mg/ml dist. water≅44 mg/ml of fibrinogen • Enzyme Solution 1 U/ml in 10 mM HEPES, 0.1% bovine serum albumin, pH 6.4 • Temperature 30 C
Thrombin also cleaves Z-Gly-Pro-Arg-p-phenylenediamine. The product could be detected by oxidative coupling with a-naphthol in the presence of hexacyanoferrate III. The result was a violet dye with Amax=565 nm. The Michaelis-Menten constant at pH 8 (buffer as for fluorescence measurement+2% Triton X100) was 6 μM.

Z-Gly-Pro-Arg-p-phenylenediamine showed a Michaelis-Menten constant of 6 µM.
